Test results as given in US12286402B2, “Compounds and their use for the treatment of alpha1-antitrypsin deficiency” (CENTESSA PHARMACEUTICALS (UK) LIMITED, priority 2019, dated 2025).

Biological target: T1, human Z A1AT (Homo sapiens, UniProt P01009, E366K)
T1 construct: expressed in transfected cells; host or cells: HEK-Z cells (human embryonic kidney cell line stably transfected with the human Z A1AT gene)
Assay: A1AT cell secretion assay using HEK-Z cells (A1AT ELISA of supernatants)
Format: cell-based
Settings: 48 h, supernatant A1AT by ELISA
Experimental: HEK-Z cells, a human embryonic kidney cell line stably transfected with the human Z A1AT gene, were plated into 96 well plates (3.0×10^5 cells/ml with 200 μl of media/well) overnight at 37° C. in a humidified atmosphere containing 5% CO2. Following incubation cells were washed with 200 μl serum-free media three times and media was replaced with treatments in quadruplicate using serum free media containing either vehicle, 10 μM suberanilohydroxamic acid (SAHA) or a compound of the invention (at concentrations of 10, 33, 100 and 333 nM) for 48 h in a 37° C. incubator in a final volume of 200 μl. At the end of the incubation step the supernatants were removed from the wells, centrifuged at 1000×g at 4° C. for 10 min and were assayed for human A1AT levels by ELISA (Human Serpin A1/α1-antitrypsin duo set ELISA, R& D Systems, DY1268) per manufacturer's instructions.
Briefly, a 96 well plate was coated with human A1AT capture antibody overnight at room temperature (1:180 dilution from stock, 100 μl final volume/well). The capture antibody was then removed and wells washed three times with 300 μl wash buffer (0.05% Tween 20 in PBS) and then 200 μl reagent diluent ([…]) was incubated in each well for 1 h at room temperature. Diluted samples, standards (125, 250, 500, 1000, 2000, 4000 and 8000 pg/ml A1AT) or blanks were then added to each well in duplicate and the plates were covered with a plate sealer and left at room temperature for 2 h. At the end of the sample incubation step, samples were removed and all wells washed as previously and 100 μl detection antibody (1:180 dilution from stock) was added to each well and incubated for a further 2 h at room temperature. Following incubation with detection antibody, supernatant was removed and wells were washed as previously and 100 μl streptavidin-HRP solution (1:200 dilution from stock) was added to each well for 20 min in the dark. After which, 50 μl stop solution (2M H2SO4) was added and optical density (OD) of each well was read at 450 nm with 570 nm blank subtracted from each well using a microplate reader. A 4 parameter logistic curve was constructed using GraphPad Prism 7 and A1AT concentrations were determined in each sample by interpolation from a standard curve and multiplying by the appropriate dilution factor.

T1 sequence (P01009 25-418 E366K): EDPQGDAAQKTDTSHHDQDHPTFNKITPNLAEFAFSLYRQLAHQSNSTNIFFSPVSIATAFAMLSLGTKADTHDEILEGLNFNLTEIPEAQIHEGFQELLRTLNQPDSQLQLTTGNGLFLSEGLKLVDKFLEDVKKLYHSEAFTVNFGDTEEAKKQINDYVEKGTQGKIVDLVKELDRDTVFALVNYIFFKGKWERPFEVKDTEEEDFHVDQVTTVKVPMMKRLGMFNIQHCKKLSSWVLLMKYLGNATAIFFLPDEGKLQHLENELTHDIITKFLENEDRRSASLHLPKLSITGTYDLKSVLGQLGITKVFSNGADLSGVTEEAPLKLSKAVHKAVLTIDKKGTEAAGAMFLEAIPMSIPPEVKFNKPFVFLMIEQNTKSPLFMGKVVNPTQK

Row | Median A1AT % increase over vehicle at 300 nM | SMILES
1 | 125% | CN(C)C(=O)c1ccc(Cn2ccccc2=O)cc1 [Example 1, N,N-dimethyl-4-((2-oxopyridin-1(2H)-yl)methyl)benzamide]
2 | 147% | CCN(C)C(=O)c1ccc(Cn2ccccc2=O)cc1 [Example 2, N-ethyl-N-methyl-4-((2-oxopyridin-1(2H)-yl)methyl)benzamide]

The next lines start with the compound.

Row | SMILES | Median A1AT % increase over vehicle at 300 nM
3 | CC(C)N(C)C(=O)c1ccc(Cn2ccccc2=O)cc1 [Example 3, N-isopropyl-N-methyl-4-((2-oxopyridin-1(2H)-yl)methyl)benzamide] | 134%
4 | CN(Cc1ccccc1)C(=O)c1ccc(Cn2ccccc2=O)cc1 [Example 4, N-benzyl-N-methyl-4-((2-oxopyridin-1(2H)-yl)methyl)benzamide] | 142%
5 | CN(CC(F)(F)F)C(=O)c1ccc(Cn2ccccc2=O)cc1 [Example 5, N-methyl-4-((2-oxopyridin-1(2H)-yl)methyl)-N-(2,2,2-trifluoroethyl)benzamide] | 129%
